Assay results taken from patent US20110104289A1, “METHOD AND PHARMACEUTICAL COMPOSITION FOR OBTAINING THE PLASMATIC PROGESTERONE LEVELS REQUIRED FOR DIFFERENT THERAPEUTIC INDICATIONS” (POSI VISIONARY SOLUTIONS LLP, priority 2008, published 2011).

Test: Progesterone plasma levels after intramuscular-type injection of injectable aqueous suspension of progesterone particles
Type: in vivo, post-menopausal women
Conditions: female, human, humans, across the dosing schemes (100-300 mg, single or repeated injection), read-out: maximum plasma concentrations (Cmax)
Protocol: 12 post-menopausal women were administered with a 100 mg single injection of progesterone spherical microparticles, in the form of an injectable aqueous suspension. Obtained plasma levels are illustrated in FIG. 1, wherein progesterone plasma concentrations are observed to be maintained up to 7 days in suitable levels for several therapies requiring said progesterone concentrations. 12 post-menopausal women were administered with a single 200 mg injection of progesterone spherical microparticles in the form of an injectable aqueous suspension. Obtained plasma levels are illustrated in FIG. 2, wherein progesterone plasma concentrations are observed to be maintained up to 7 days in suitable levels for several therapies requiring said progesterone concentrations and described in page 2. Four 200 mg repeated injections of progesterone spherical microparticles were administered in the form of an injectable aqueous suspension to 15 post-menopausal women. Obtained plasma levels are illustrated in FIG. 3, wherein progesterone plasma concentrations are observed to be maintained up to 7 days in suitable levels for several therapies requiring said progesterone concentrations and described in page 2. Four 300 mg repeated injections of progesterone spherical microparticles were administered in the form of an injectable aqueous suspension to 13 post-menopausal women. […]

SMILES: CC(=O)[C@H]1CC[C@H]2[C@@H]3CCC4=CC(=O)CC[C@]4(C)[C@H]3CC[C@]12C [progesterone]
- Cmax: 12 to 42 ng/mL
